These results are taken from ChEMBL document CHEMBL5728026, “Indole derivative used as CRTH2 inhibitor” (2020).

In the assay the target is T1, Prostaglandin D2 receptor 2 (Homo sapiens, UniProt Q9Y5Y4).
T1 sequence (Q9Y5Y4 whole entry): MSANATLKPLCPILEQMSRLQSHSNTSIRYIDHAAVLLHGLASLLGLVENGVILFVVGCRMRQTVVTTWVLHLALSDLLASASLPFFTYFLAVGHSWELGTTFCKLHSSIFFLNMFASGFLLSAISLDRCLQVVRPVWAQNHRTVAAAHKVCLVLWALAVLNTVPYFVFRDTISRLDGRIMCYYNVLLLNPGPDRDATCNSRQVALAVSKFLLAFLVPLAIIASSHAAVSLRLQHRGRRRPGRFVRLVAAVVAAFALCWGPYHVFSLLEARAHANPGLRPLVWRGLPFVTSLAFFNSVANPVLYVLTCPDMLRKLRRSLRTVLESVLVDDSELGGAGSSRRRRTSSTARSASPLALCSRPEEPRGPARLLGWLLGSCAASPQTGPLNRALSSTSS
Nature of the assay: Biological Activity Assay: Experimental Method:PathHunter CHO-K1 CRTH2 β-arrestin cells (DiscoverX, catalogue number 93-0291C2) grew under standard conditions, and were inoculated into a white-wall 384-well microplate at a density of 5,000 cells/well. 20 μL of Cell Plating Reagent 1 was used in each well. Before the test, the cells were incubated overnight at 37° C./5% CO2. A test compound was serially diluted in DMSO with a dilution factor of 3-fold to give 8 concentrations of the test compound. Shortly before the test, the serially diluted test compound was further diluted with the test buffer to 5 times of the test concentration. 5 μL of the further diluted test compound was added to the cells, and the cells were incubated for 30 min at 37° C. The concentration of the solvent was 1%. 5 μL of 6×EC80 agonist (PGD2) buffer was added to the cells, and the cells were incubated for 90 min at 37° C. Measured signals were generated by one-time addition of 15 μL (50% v/v) of PathHunter detection mixture reagent and subsequent one-hour incubation. The microplate was read through the chemiluminescent signals of PerkinElmer Envision™ reader. Biological activity of the test compound was analyzed by CBIS data analysis suite (ChemInnovation, CA), and was denoted as IC50 value.

The IC50 is the midpoint of a concentration-inhibition curve. For the compound `Cc1c(Cc2ccc3c(c2)C(F)(F)CCS3(=O)=O)c2cc(F)ccc2n1Cc1nn[nH]n1`, the half-maximal inhibitory concentration (IC50) is more than 1000 nM.

For `Cc1c(Cc2ccc3c(c2)C(F)(F)CN(C)S3(=O)=O)c2cc(F)ccc2n1CC(=O)O`, the IC50 was less than 100 nM.

Consider `Cc1c(Cc2ccc3c(c2)CCS3(=O)=O)c2cc(NC(=O)C3CC3)ccc2n1CC(=O)O`, for which the IC50 is more than 1000 nM.

In the case of `Cc1c(C2=CS(=O)(=O)c3cc(Cl)ccc32)c2cc(F)ccc2n1CC(=O)O`, the IC50 is less than 100 nM.

With `CC1=Nc2cc(Cc3c(C)n(CC(=O)O)c4ccc(F)cc34)ccc2S(=O)(=O)N1`, the half-inhibitory concentration (IC50) was less than 100 nM.

In the case of `Cc1c(Cc2ccc3c(c2)C(C)(C)CS3(=O)=O)c2cc(F)ccc2n1CC(=O)O`, the IC50 is less than 100 nM.

Consider `Cc1c(C2=CS(=O)(=O)c3ccccc32)c2cc(F)ccc2n1CC(=O)O`, for which the IC50 is less than 100 nM.

On to `O=C(O)Cn1c(-c2ccccc2)c(Cc2ccc3c(c2)CCS3(=O)=O)c2ccccc21`, for which the IC50 was more than 1000 nM.

As for `Cc1c(C2=CS(=O)(=O)c3cc(-c4cc(F)cc(Cl)c4)ccc32)c2cc(F)ccc2n1CC(=O)O`, the IC50 is less than 100 nM.

For the compound `Cc1c(Cc2ccc3c(c2)N(C)CN(C)S3(=O)=O)c2cc(F)ccc2n1CC(=O)O`, the IC50 was less than 100 nM.

Regarding `Cc1c(Cc2ccc3c(c2)N=CN(C)S3(=O)=O)c2cc(F)ccc2n1CC(=O)O`, the IC50 is less than 100 nM.

Consider `Cc1c(Cc2ccc3c(c2)C(F)(F)CCS3(=O)=O)c2cnccc2n1CC(=O)O`, for which the IC50 is more than 1000 nM.

`Cc1c(Cc2ccc3c(c2)CCS3(=O)=O)c2ccc(C(F)(F)F)cc2n1CC(=O)O`: the IC50 is more than 1000 nM.

Take `Cc1c(Cc2ccc3c(c2)C(F)(F)CCS3(=O)=O)c2cccnc2n1CC(=O)O`: the concentration for half-maximal inhibition (IC50) is more than 1000 nM.

Regarding `Cc1c(Cc2cc3c(cc2C(F)(F)F)S(=O)(=O)N(C)CN3C)c2cc(F)ccc2n1CC(=O)O`, the half-maximal inhibitory concentration (IC50) was less than 100 nM.

On to `Cc1c(C2=CCS(=O)(=O)c3ccccc32)c2cc(F)ccc2n1CC(=O)O`, for which the IC50 was less than 100 nM.

Regarding `Cc1c(C2=CS(=O)(=O)c3ccc(F)cc32)c2cc(F)ccc2n1CC(=O)O`, the IC50 is more than 1000 nM.

For the compound `Cc1c(Cc2ccc3c(c2)C(F)(F)CCS3(=O)=O)c2cc(F)ccc2n1CC(=O)O`, the IC50 was less than 100 nM.

On to `Cc1c(C2=CS(=O)(=O)c3cc(C(F)(F)F)ccc32)c2cc(F)ccc2n1CC(=O)O`, for which the IC50 is less than 100 nM.

As for `Cc1c(Cc2ccc3c(c2)CNS3(=O)=O)c2cc(F)ccc2n1CC(=O)O`, the IC50 was less than 100 nM.

For the compound `Cc1c(C2=CS(=O)(=O)c3ccccc32)c2ccc(Cl)cc2n1CC(=O)O`, the IC50 was less than 100 nM.
